Test results from patent publication US20250197384A1, “AZOLE COMPOUND AND ANTIFUNGAL AGENT” (NIHON NOHYAKU CO., LTD., priority 2022, published 2025).

Tests used:
[1] = tested on: Aspergillus fumigatus TIMM0063; test: In vitro anti-Aspergillus activity test; format: cell-based; conditions: 80% or more inhibition, unit inferred
Procedure: Aspergillus fumigatus TIMM0063 was used as the strain. The test fungi were cultured on a Potato dextrose agar slant medium at 35° C. for 4 days, and then sterilized saline containing 0.1% (v/v) Tween 80 was added to release the conidia. This conidial suspension was filtered through sterile gauze, and the number of conidia was counted using a hemocytometer. The same solution was adjusted to a conidial concentration of 1×10^6 conidia/mL, and this was used as an inoculum. Each compound was dissolved in dimethyl sulfoxide to a predetermined concentration, and diluted 50-fold with 0.165 M MOPS buffered RPMI 1640 liquid medium, and each diluted solution was dispensed into a 96-well microplate by each 100 μL. The inoculum was diluted 50-fold with 0.165 M MOPS buffered RPMI 1640 liquid medium containing 20% alamar Blue™, and the diluted solution was inoculated into the 96-well microplate containing the compound by each 100 μL (final inoculum amount 1.0×10^4 conidia/mL). After static culture at 35° C. for 48 hr, the degree of color development of the alamar Blue™ was measured using a microplate reader (O.D. 570-595 nm), and the minimum concentration showing 80% or more inhibition was defined as the minimum inhibitory concentration (MIC).

[2] = tested on: Candida albicans NBRC1270; test: In vitro anti-Candida activity test; format: cell-based; conditions: 80% or more inhibition, unit inferred
Procedure: Candida albicans NBRC1270 was used as the strain. The test fungi were cultured on a Sabouraud dextrose agar slant medium at 35° C. for 24 hr, and then suspended in sterilized saline. The number of cells in this suspension was counted using a hemocytometer, and the same suspension was adjusted to a cell concentration of 1.5×10^5 cells/mL, and this was used as an inoculum. Each compound was dissolved in dimethyl sulfoxide to a predetermined concentration, and diluted 50-fold with 0.165 M MOPS buffered RPMI 1640 liquid medium, and each diluted solution was dispensed into a 96-well microplate by each 100 μL. The inoculum was diluted 50-fold with 0.165 M MOPS buffered RPMI 1640 liquid medium containing 20% alamar Blue™, and the diluted solution was inoculated into the 96-well microplate containing the compound by each 100 μL (final inoculum amount 1.5×10^3 cells/mL). After static culture at 35° C. for 24 hr, the degree of color development of the alamar Blue™ was measured using a microplate reader (O.D. 570-595 nm), and the minimum concentration showing 80% or more inhibition was defined as the minimum inhibitory concentration (MIC).

| Structure (SMILES) | A. fumigatus (MIC) ([1]; Table 23, 35° C. for 48 hr) [µg/mL] | C. albicans (MIC) ([2]; Table 23, 35° C. for 24 hr) [ng/mL] | A. fumigatus (MIC) ([1]; Table 24, 35° C. for 48 hr) [µg/mL] | C. albicans (MIC) ([2]; Table 24, 35° C. for 24 hr) [ng/mL] | further results |
| --- | --- | --- | --- | --- | --- |
| N#C/C(=C1/SCC(c2ncc(NC(=O)OCc3ncc(F)cc3F)cc2Cl)S1)n1cncn1 (racemic) [compound 75] | 0.01 | 10 |  |  |  |
| CC(C)COC(=O)Nc1cnc(C2CS/C(=C(/C#N)n3cncn3)S2)c(Cl)c1 (racemic) [compound 83] | 0.01 | 5 |  |  |  |
| CCCOC(=O)Nc1cnc(C2CS/C(=C(/C#N)n3cncn3)S2)c(Cl)c1 (racemic) [compound 84] | 0.005 | 5 |  |  |  |
| N#C/C(=C1/SCC(c2ncc(NC(=O)OCc3ccc(F)cc3)cc2Cl)S1)n1cncn1 (racemic) [compound 89] | 0.01 | 2.5 |  |  |  |
| N#C/C(=C1/SCC(c2ncc(NC(=O)OCC3CC3(F)F)cc2Cl)S1)n1cncn1 (racemic) [compound 96] | 0.01 | 5 |  |  |  |
| N#C/C(=C1/SCC(c2ncc(NC(=O)OCc3cccc(F)c3)cc2Cl)S1)n1cncn1 (racemic) [compound 98] | 0.005 | 2.5 |  |  |  |
| N#C/C(=C1/SCC(c2ncc(NC(=O)OCc3ccccc3F)cc2Cl)S1)n1cncn1 (racemic) [compound 99] | 0.005 | 2.5 |  |  |  |
| N#C/C(=C1/SCC(c2ncc(NC(=O)OCc3ccncc3F)cc2Cl)S1)n1cncn1 (racemic) [compound 114] |  |  | 0.01 | 10 |  |
| N#C/C(=C1/SCC(c2ncc(NC(=O)OCc3ccnc(F)c3)cc2Cl)S1)n1cncn1 (racemic) [compound 115] |  |  | 0.01 | 5 |  |
| CC1CC1COC(=O)Nc1cnc(C2CS/C(=C(/C#N)n3cncn3)S2)c(Cl)c1 (racemic) [compound 118] |  |  | 0.005 | 1.25 |  |
| N#C/C(=C1/SCC(c2ncc(NC(=O)OCC3(F)CC3)cc2Cl)S1)n1cncn1 (racemic) [compound 150] |  |  |  |  | A. fumigatus (MIC) ([1]; Table 25, 35° C. for 48 hr): 0.01 µg/mL; C. albicans (MIC) ([2]; Table 25, 35° C. for 24 hr): 5 ng/mL |
| N#C/C(=C1/SCC(c2ncc(NC(=O)OCC3CC3(Cl)Cl)cc2Cl)S1)n1cncn1 (racemic) [compound 151] |  |  |  |  | A. fumigatus (MIC) ([1]; Table 25, 35° C. for 48 hr): 0.01 µg/mL; C. albicans (MIC) ([2]; Table 25, 35° C. for 24 hr): 2.5 ng/mL |

Second part, led by results:

| A. fumigatus (MIC) ([1]; Table 23, 35° C. for 48 hr) [µg/mL] | C. albicans (MIC) ([2]; Table 23, 35° C. for 24 hr) [ng/mL] | A. fumigatus (MIC) ([1]; Table 24, 35° C. for 48 hr) [µg/mL] | C. albicans (MIC) ([2]; Table 24, 35° C. for 24 hr) [ng/mL] | Structure (SMILES) | further results |
| --- | --- | --- | --- | --- | --- |
| 0.005 | 1.25 |  |  | N#C/C(=C1/SCC(c2ncc(NC(=O)OCC3CC3)cc2Cl)S1)n1cncn1 (racemic) [compound 87] |  |
| 0.01 | 2.5 |  |  | N#C/C(=C1/SCC(c2ncc(NC(=O)OCC3CCC3)cc2Cl)S1)n1cncn1 (racemic) [compound 97] |  |
| 0.01 | 5 |  |  | N#C/C(=C1/SCC(c2ncc(NC(=O)OCC3CC3)cc2F)S1)n1cncn1 (racemic) [compound 103] |  |
| 0.01 | 5 |  |  | N#C/C(=C1/SCC(c2ncc(NC(=O)OCC3CC(F)(F)C3)cc2Cl)S1)n1cncn1 (racemic) [compound 107] |  |
|  |  | 0.01 | 10 | N#C/C(=C1/SCC(c2ncc(NC(=O)OCC3CC3(F)F)cc2F)S1)n1cncn1 (racemic) [compound 128] |  |
|  |  | 0.0025 | 1.25 | N#CC(=C1SCC(c2ncc(C=NOCC3CC3)cc2Cl)S1)n1cncn1 (racemic) [compound 139] |  |
|  |  | 0.0025 | 2.5 | N#CC(=C1SCC(c2ncc(C=NOCC3CC3)cc2F)S1)n1cncn1 (racemic) [compound 140] |  |
|  |  | 0.0025 | 2.5 | CCCON=Cc1cnc(C2CSC(=C(C#N)n3cncn3)S2)c(Cl)c1 (racemic) [compound 141] |  |
|  |  | 0.01 | 2.5 | CC(C)ON=Cc1cnc(C2CSC(=C(C#N)n3cncn3)S2)c(Cl)c1 (racemic) [compound 142] |  |
|  |  | 0.005 | 2.5 | CC(C)CON=Cc1cnc(C2CSC(=C(C#N)n3cncn3)S2)c(Cl)c1 (racemic) [compound 143] |  |
|  |  | 0.005 | 10 | CCCON=Cc1cnc(C2CSC(=C(C#N)n3cncn3)S2)c(F)c1 (racemic) [compound 144] |  |
